According to patent US10487071B2, “Bis-triazole compounds with anti-biofilm and anti-corrosion properties” (Université de Toulon, priority 2015, dated 2019):
Like-named read-outs stand apart in the source and are kept apart here.

Key:
[1] = test system: Polaribacter sp. (TC5); experiment: Anti-adhesion test, strain TC5; format: cell-based; details: for activity at 200 µM: 15 h; for EC50: read-out: EC50 (effective concentration to inhibit 50% of the adhesion)
Protocol: (§1) Bacterial strains were grown on Väätänen nine-salts solution (VNSS). When the stationary phase was reached, the bacterial suspension was centrifuged. Cells were then diluted in sterile artificial sea water (ASW) and introduced in microtiter plates (sterile black PS; Nunc, Fisher Scientific, France) with the tested compound (at eight concentrations in three replicates) in the presence of three controls: (i) non-specific staining control, (ii) adhesion control, and (iii) positive control. The maximum percentage of solvent (DMSO 2%) used to dilute the tested compound was also tested in triplicate as additional control. After incubation during an optimized adhesion time (moderately 15 h), non-adhered bacteria were eliminated and adhered cells were quantified after SYTO 61 (1 μM) staining. A percentage of inhibition was calculated per well. A sigmoid dose-response curve was obtained by plotting the percentage of inhibition as a function of the log of tested compound concentration, after mean (n=3) and standard deviation (SD) calculation per triplicate for each concentration. EC50 values were then calculated for each compound.
(§2) Polaribacter sp. (TC5) was isolated in June 2010 in the Military Harbor of Toulon (Mediterranean Sea, France) as described in F. Brian-Jaisson, A. Ortalo-Magné, L. Guentas-Dombrowsky, F. Armougom, Y. Blache, M. Molmeret, Microb. Ecol., 2014, 68, 94-110.

[2] = test system: Polaribacter sp. (TC5); experiment: Toxicity test, strain TC5; format: cell-based; details: for CC50: read-out: LC50 (necessary concentration to kill 50% of the bacteria)
Description: as §2

[3] = test system: marine bacterial strains (TC14, TC8, 4M6, TC5 and TC11); experiment: Toxicity test, summary over the strains; format: cell-based; details: comparison with reference biocides
Description: (§3) In examples 64 and 65, the following marine bacterial strains are used.

[4] = test system: Pseudoalteromonas ulvae (TC14); experiment: Anti-adhesion test, strain TC14; format: cell-based; details: for inhibition of the adhesion of bacterial strain TC14 / activity at 200 µM: 200 μM; for activity at 200 µM / EC50: Pseudoalteromonas ulvae; for activity at 200 µM: 15 h; for EC50: read-out: EC50 (effective concentration to inhibit 50% of the adhesion)
How it was run: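 Stationary-phase TC14 cells grown in VNSS, diluted in artificial seawater and incubated with compound at eight concentrations in triplicate (DMSO ≤2%) for about 15 h. Non-adhered bacteria removed and adhered cells quantified by SYTO 61 (1 μM) staining. EC50 derived from sigmoid fit of % inhibition versus log concentration.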

[5] = test system: Pseudoalteromonas lipolytica (TC8); experiment: Anti-adhesion test, strain TC8; format: cell-based; details: Pseudoalteromonas lipolytica; for activity at 200 µM: 15 h, read-out: % of adhesion at 200 μM, TC8; for EC50: read-out: EC50 (effective concentration to inhibit 50% of the adhesion), TC8
How it was run: (§4)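 Stationary-phase bacteria grown in VNSS, diluted in artificial sea water and incubated about 15 h with compound at eight concentrations in triplicate, DMSO up to 2%. Adhered cells stained with SYTO 61 (1 μM). EC50 from a sigmoid fit of % inhibition against log concentration.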

[6] = Gravimetry (weight loss), corrosion inhibition; details: mild steel in 1N HCl
How it was run: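 Mild steel coupons (2.5×2.0×0.1 cm) immersed in non-de-aerated 1N HCl without or with various inhibitor concentrations, then washed, dried and reweighed; duplicate runs. IE (%) calculated from corrosion rates without (CR^o) and with (CR) inhibitor.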

[7] = test system: Pseudoalteromonas ulvae (TC14); experiment: Toxicity test, strain TC14; format: cell-based
Description: Pseudoalteromonas ulvae (TC14) was isolated in June 2010 in the Military Harbor of Toulon (Mediterranean Sea, France) as described in F. Brian-Jaisson, A. Ortalo-Magné, L. Guentas-Dombrowsky, F. Armougom, Y. Blache, M. Molmeret, Microb. Ecol., 2014, 68, 94-110.

[8] = test system: Paracoccus sp. (4M6); experiment: Anti-adhesion test, strain 4M6; format: cell-based; details: Paracoccus; for activity at 200 µM: 15 h, read-out: % of adhesion at 200 μM, 4M6; for EC50: read-out: EC50 (effective concentration to inhibit 50% of the adhesion), 4M6
How it was run: as §4

[9] = test system: Shewanella sp. (TC11); experiment: Anti-adhesion test, strain TC11; format: cell-based; details: for activity at 200 µM: 15 h; for EC50: read-out: EC50 (effective concentration to inhibit 50% of the adhesion), strain TC11
Protocol: as §1
(§5) Shewanella sp. (TC11) was isolated in June 2010 in the Military Harbor of Toulon (Mediterranean Sea, France) as described in F. Brian-Jaisson, A. Ortalo-Magné, L. Guentas-Dombrowsky, F. Armougom, Y. Blache, M. Molmeret, Microb. Ecol., 2014, 68, 94-110.

[10] = test system: Shewanella sp. (TC11); experiment: Toxicity test, strain TC11; format: cell-based
Description: as §5

[11] = test system: marine bacterial strains (TC14, TC8, 4M6, TC5 and TC11); experiment: Anti-adhesion test, summary over the strains; format: cell-based; details: for EC50 compared with TBTO/ZINEB: comparison with reference biocides
Protocol: as §1, §3

[12] = test system: Pseudoalteromonas lipolytica (TC8); experiment: microbe, parasite or virus in culture; details: for CC50: Pseudoalteromonas lipolytica, read-out: LC50 (necessary concentration to kill 50% of the bacteria), TC8; for IS: LC50/EC50 (selectivity index), TC8: strain TC8
Description: (§6) The anti-adhesion bioassays and toxicity tests are adapted from those disclosed in M. Camps, J.-F. Briand, L. Guentas-Dombrowsky, G. Culioli, A. Bazire and Y. Blache, Mar. Poll.
(§7) After growth on VNSS, bacterial strains were harvested during the exponential phase. The microtiter plates (sterile transparent PS; Nunc, Fisher Scientific) were filled as described in the Anti-adhesion test method using VNSS instead of ASW to allow bacterial growth. The growth was followed by measuring the turbidity (OD600 nm) every hour during 6 or 7 hours. Then, resazurin (50 μM) was added in all the wells, and fluorescence was measured after 2 h to quantify the percent of bacterial viability. The same methodology used with SYTO 61 was applied to calculate a percent of viability after resazurin staining.

[13] = test system: Paracoccus sp. (4M6); experiment: microbe, parasite or virus in culture; details: for CC50: Paracoccus, read-out: LC50 (necessary concentration to kill 50% of the bacteria), 4M6; for IS: LC50/EC50 (selectivity index), 4M6: strain 4M6
Description: as §6, §7

[14] = read-out: inhibition of the adhesion of at least four marine bacterial strains
[15] = read-out: inhibition of the adhesion of at least two marine bacterial strains
[16] = 200 μM, strain TC11, read-out: % of adhesion at 200 μM, TC11

| SMILES | activity at 200 µM [1] [%] | EC50 [1] [µM] | IS: LC50/EC50 (selectivity index), TC5 [2] | CC50 [2] [µM] | toxicity by LC50 values compared with TBTO/ZINEB [3] | activity at 200 µM [4] [%] | EC50 [4] [µM] | activity at 200 µM [5] [%] | EC50 [5] [µM] | IE % ([6]; 0.1 ppm) [%] | IE % ([6]; 0.3 ppm) [%] | IE % ([6]; 0.5 ppm) [%] | IE % ([6]; 2 ppm) [%] | IE % ([6]; 10 ppm) [%] | IS: LC50/EC50 (selectivity index), TC14 [7] | LC50 (necessary concentration to kill 50% of the bacteria), TC14 [7] [µM] | activity at 200 µM [8] [%] | EC50 [8] [µM] | EC50 [9] [µM] | IS: LC50/EC50 (selectivity index), TC11 [10] | other results |
| --- | --- | --- | --- | --- | --- | --- | --- | --- | --- | --- | --- | --- | --- | --- | --- | --- | --- | --- | --- | --- | --- |
| CN(C)CCOc1ccc(CCn2cc(-c3ccc(-c4cn(CCc5ccc(OCCN(C)C)c(Br)c5)nn4)cc3)nn2)cc1Br [AS162, 2-(4-(2-(4-(4-(1-(4-(2-(dimethylamino)ethoxy)-3-bromophenethyl)-1H-1,2,3-triazol-4-yl)phenyl)-1H-1,2,3-triazol-1-yl)ethyl)-2-bromophenoxy)-N,N-dimethylethanamine] | 21.5 ± 6.6 | 15.5 ± 0.1 | 24.6 | 382 | less toxic than TBTO and ZINEB | 0 | 0.97 ± 0.8 | 14 | 5.1 ± 1 | 48.81 | 93.35 | 92.92 | 97.73 | 97.30 | 265.7 | 257.7 | 10.9 ± 8.1 | 5.1 ± 1.04 | 12.6 ± 5.1 | 26.5 | inhibition of the adhesion of bacterial strain TC14 [4]: totally inhibit; activity at 200 µM ([9]; read-out: % of adhesion at 200 μM, TC11): 4.3 ± 7.5%; LC50 (necessary concentration to kill 50% of the bacteria), TC11 [10]: 334.3 µM; EC50 compared with TBTO/ZINEB [11]: comparable to that of TBTO and lower than that of ZINEB; inhibition at 200 µM [11, 14]: ≥ 85%; inhibition at 200 µM [11, 15]: ≥ 65%; CC50 [12]: 66.1 µM; IS: LC50/EC50 (selectivity index), TC8 [12]: 12.9; CC50 [13]: 97.6 µM; IS: LC50/EC50 (selectivity index), 4M6 [13]: 19.2 |
| CN(C)CCCOc1ccc(CCn2cc(-c3ccc(-c4cn(CCc5ccc(OCCCN(C)C)c(Br)c5)nn4)cc3)nn2)cc1Br [AS172, 3-(4-(2-(4-(4-(1-(4-(3-(dimethylamino)propoxy)-3-bromophenethyl)-1H-1,2,3-triazol-4-yl)phenyl)-1H-1,2,3-triazol-1-yl)ethyl)-2-bromophenoxy)-N,N-dimethylpropan-1-amine] | 12.7 ± 5.7 | 11 ± 0.3 | 11.1 | 122 | less toxic than TBTO and ZINEB | 0.5 ± 0.8 | 0.39 ± 0.28 | 5.3 ± 2.5 | 15 ± 3.3 | 40.16 | 92.94 | 91.11 | 96.44 | 98.15 | 576.1 | 224.7 | 5.1 ± 1.4 | 3.6 ± 3.8 | 15.6 ± 2.9 | 18.9 | inhibition of the adhesion of bacterial strain TC14 [4]: totally inhibit; activity at 200 µM [9, 16]: 4.6 ± 0.4%; LC50 (necessary concentration to kill 50% of the bacteria), TC11 [10]: 293 µM; EC50 compared with TBTO/ZINEB [11]: comparable to that of TBTO and lower than that of ZINEB; inhibition at 200 µM [11, 14]: ≥ 85%; inhibition at 200 µM [11, 15]: ≥ 65%; CC50 [12]: 165 µM; IS: LC50/EC50 (selectivity index), TC8 [12]: 10.9; CC50 [13]: 82.3 µM; IS: LC50/EC50 (selectivity index), 4M6 [13]: 22.9 |
| CN(C)CCOc1c(Br)cc(CCn2cc(-c3ccc(-c4cn(CCc5cc(Br)c(OCCN(C)C)c(Br)c5)nn4)cc3)nn2)cc1Br [SA33, 2-(4-(2-(4-(4-(1-(4-(2-(dimethylamino)ethoxy)-3,5-dibromophenethyl)-1H-1,2,3-triazol-4-yl)phenyl)-1H-1,2,3-triazol-1-yl)ethyl)-2,6-dibromophenoxy)-N,N-dimethylethanamine] | 0.7 ± 0.7 | 19.2 ± 2.1 | 4.8 | 92.6 | less toxic than ZINEB | 6.3 ± 1.3 | 20.4 ± 1.2 | 6.8 ± 4.3 | 42.5 ± 16.9 | 87.08 | 95.37 | 95.89 | 96.25 | 96.03 | 12.45 | 254.1 | 7.4 ± 8.3 | 11.3 ± 9.1 | 32 ± 8.1 | 4.2 | activity at 200 µM [9, 16]: 4.4 ± 2.7%; LC50 (necessary concentration to kill 50% of the bacteria), TC11 [10]: 134.8 µM; EC50 compared with TBTO/ZINEB [11]: comparable to that of ZINEB; inhibition at 200 µM [11, 14]: ≥ 85%; inhibition at 200 µM [11, 15]: ≥ 65%; CC50 [12]: 199 µM; IS: LC50/EC50 (selectivity index), TC8 [12]: 4.7; CC50 [13]: 126 µM; IS: LC50/EC50 (selectivity index), 4M6 [13]: 11.2 |
